Source: patent US8911798B2, “Multivitamin and mineral compositions for individuals having renal disease” (priority 2007, dated 2014)

Legend:
[1] = daily doses higher than 1 mg/day; cited from earlier work
[2] = Cholecalciferol dosing, calciuria and hypercalcemia in renal patients; format: in vivo, human
Description: The inventor has discovered that these therapeutic approaches are obsolete today because of the risk of prolonged hypercalcemia resulting from the long half-life of 25-(OH)-D3 in renal patients. […] Likewise, the inventor has discovered that repletion of vitamin D to achieve a plasma 25-(OH)-D concentration in the 80th percentile or higher of normal clinical values prevents renal osteodystrophy, Looser zones, and sub-periosteal resorption, despite the persistence of hypocalcemia, hyperphosphatemia and metabolic acidosis, or the use of calcium-aluminum free phosphate binders such as sevelamer salts. Therefore, a composition of the invention comprises 375 to 425 IU of vitamin D and a preferred embodiment of a composition of the invention provides 400 IU of vitamin D.

[3] = cited from earlier work
[4] = blood flow of 200-300 mL/min; cited from earlier work
[5] = up to 200 mg/day; cited from earlier work
[6] = 43 maintenance hemodialysis patients, low flux/low efficiency dialyzers; 200 mg post-dialysis 2-3 times per week (400-600 mg weekly) orally; cited from earlier work
[7] = 400 μg/L in dialysate, 6 months; cited from earlier work
[8] = daily oral 25 mg elemental zinc, 6 months; from 81±8 mcg/dL; normal controls 111±10 μg/dL; p<0.005; cited from earlier work
[9] = zinc supplementation, dialysis patients; cited from earlier work
[10] = in vivo; cited from earlier work
[11] = cited from earlier work; remark: listed apart in the source
[12] = single oral dose of 1200 IU; cited from earlier work
[13] = 15 days of treatment with 300 mg/day; hemodialysis patients; cited from earlier work
[14] = Daily vitamin K over several years in the general population; format: in vivo, human; details: 1 mg dose each day over several years
Description: The inventor has discovered that the 10 mcg dose of vitamin K that is provided in conventional multivitamin preparations is too low. […] A composition of their invention comprises vitamin K in doses that are appropriate for subjects with renal disease and provides 25 to 1000 mcg of vitamin K, and a preferred embodiment of a composition of the invention provides 50 mcg of vitamin K.

Compound: Nc1nc2ncc(CNc3ccc(C(=O)N[C@@H](CCC(=O)O)C(=O)O)cc3)nc2c(=O)[nH]1 [Folic acid]
- renal patients in whom plasma homocysteine levels are lowered [1]: up to 30%

Compound: C=C1CC[C@H](O)C/C1=C/C=C1\CCC[C@]2(C)[C@@H]([C@H](C)CCCC(C)C)CC[C@@H]12 [cholecalciferol]
- calciuria and hypercalcemia ([2]; dose of 800 IU or 20 mcg, pre-dialysis patients): does not cause an increase in calciuria in pre-dialysis patients nor hypercalcemia
- calciuria and hypercalcemia ([2]; doses in excess of 2400 IU or 60 mcg/day): these complications are seen

Compound: [Se] [selenium]
- APACHE III score versus untreated group ([3]; SIRS patients): significantly lower
- time to normalization of serum selenium levels and GSH-Px activity ([3]; Se treated SIRS patients): ≤ 3 days
- overall mortality ([3]; Se+ group, 52% in the Se− group): 33.5%

Compound: O=C1O[C@H]([C@@H](O)CO)C(O)=C1O [vitamin C, ascorbic acid]
- clearance of vitamin C (ascorbate) during hemodialysis [4]: about 100 mL/min
- bioavailability [5]: ~100%
- patients with decreased plasma vitamin C levels / serum levels not maintained despite supplement [6]: 27%

Compound: [Zn] [zinc]
- intracellular content of ATP in lymphocytes [7]: increased intracellular content of ATP in lymphocytes
- serum zinc level [7]: significant increase in serum zinc level
- plasma Zn levels after treatment [8]: 110 ± 14 µg/dL
- patients with plasma testosterone levels increased into the normal range [9]: 50%
- plasma level at which zinc toxicity is seen [10]: around 700 mcg/dL

Compound: Fe(III) hydroxide sucrose complex
- hemodialysis patients with bleomycin-detectable free iron in the circulation ([11]; 100 mg intravenously): 8 of the 10
- plasma total peroxide and malondialdehyde concentrations ([11]; within ten minutes following infusion of 100 mg): rise in plasma total peroxide and malondialdehyde concentrations

Compound: vitamin E
- oxidative stress induced by intravenous iron [12]: effective in attenuating the oxidative stress
- platelet vitamin E levels [13]: increased to the normal range

Compound: vitamin K
- untoward effects [14]: no untoward effects
